# Results: PubChem BioAssay AID330 (DTP/NCI, 2004)
# “And” between values parts separate entries of the source, which are not always exact repeats. Identical values can stand only once. Toxic doses and inconclusive results are not listed.
# System: P388 leukemia ip, CD2F1 mice, survival T/C
# Assay: NCI In Vivo Anticancer Drug Screen. Data for tumor model P388 Leukemia (intraperitoneal) in CD2F1 (CDF1) mice
# Settings: endpoint: median survival time, higher = longer survival
# Summary of the method: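 Mice carrying the transplanted tumor received test compound or vehicle. Survival was recorded in each group, and the value is the treated-group measurement divided by that of the vehicle-treated control group.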
# [1] = dose: 50.0 mg/kg/injection, schedule: Q01DX005 (ip), vehicle: Klucel (hydroxypropylcellulose) (HPC)
# [2] = dose: 100.0 mg/kg/injection, schedule: Q01DX005 (ip), vehicle: Klucel (hydroxypropylcellulose) (HPC)
# [3] = dose: 200.0 mg/kg/injection, schedule: Q01DX005 (ip), vehicle: Klucel (hydroxypropylcellulose) (HPC)
# [4] = dose: 60.0 mg/kg/injection, schedule: Q01DX005 (ip), vehicle: saline with Tween-80
# [5] = dose: 120.0 mg/kg/injection, schedule: Q01DX005 (ip), vehicle: saline with Tween-80
# [6] = dose: 240.0 mg/kg/injection, schedule: Q01DX005 (ip), vehicle: saline with Tween-80
# [7] = dose: 50.0 mg/kg/injection, schedule: Q01DX009 (ip), vehicle: saline with Tween-80
# [8] = dose: 100.0 mg/kg/injection, schedule: Q01DX009 (ip), vehicle: saline with Tween-80
# [9] = dose: 100.0 mg/kg/injection, schedule: Q04DX003 (ip), vehicle: saline with Tween-80
# [10] = dose: 200.0 mg/kg/injection, schedule: Q01DX009 (ip), vehicle: saline with Tween-80
# [11] = dose: 12.5 mg/kg/injection, schedule: Q01DX009 (ip), vehicle: Klucel (hydroxypropylcellulose) (HPC)
# [12] = dose: 25.0 mg/kg/injection, schedule: Q01DX009 (ip), vehicle: Klucel (hydroxypropylcellulose) (HPC)
# [13] = dose: 50.0 mg/kg/injection, schedule: Q01DX009 (ip), vehicle: Klucel (hydroxypropylcellulose) (HPC)
# [14] = dose: 50.0 mg/kg/injection, schedule: Q01DX009 (ip), vehicle: saline
# [15] = dose: 100.0 mg/kg/injection, schedule: Q01DX009 (ip), vehicle: saline
# [16] = dose: 200.0 mg/kg/injection, schedule: Q01DX009 (ip), vehicle: saline
# [17] = dose: 100.0 mg/kg/injection, schedule: Q01DX009 (ip), vehicle: Klucel (hydroxypropylcellulose) (HPC)
# [18] = dose: 200.0 mg/kg/injection, schedule: Q01DX009 (ip), vehicle: Klucel (hydroxypropylcellulose) (HPC)
compound,measurement,setting,value
O=C1c2ccccc2C2(O)C3C=CCCN3CN12 (stereo not drawn),T/C,[1],101 % of control
same,T/C,[2],100 % of control
same,T/C,[3],100 % of control
COc1cc(C(=O)NNC(=O)C2CCC(=O)N2Cc2ccccc2)cc(OC)c1OC (stereo not drawn),T/C,[4],89 % of control
same,T/C,[5],90 % of control
same,T/C,[6],87 % of control
CC1=CC2c3cccc4[nH]cc(c34)CC2N(C)C1 (stereo not drawn),T/C,"dose: 2.5 mg/kg/injection, schedule: Q01DX009 (ip), vehicle: saline",114 % of control and 116 % of control
same,T/C,"dose: 5.0 mg/kg/injection, schedule: Q01DX009 (ip), vehicle: saline",117 % of control
same,T/C,"dose: 10.0 mg/kg/injection, schedule: Q01DX009 (ip), vehicle: saline",116 % of control and 120 % of control
CC1(C)COC(=O)/C1=C\C#N,T/C,"dose: 50.0 mg/kg/injection, schedule: Q04DX003 (ip), vehicle: Klucel (hydroxypropylcellulose) (HPC)",94 % of control and 98 % of control
same,T/C,"dose: 100.0 mg/kg/injection, schedule: Q04DX003 (ip), vehicle: Klucel (hydroxypropylcellulose) (HPC)",105 % of control
same,T/C,"dose: 100.0 mg/kg/injection, schedule: Q04DX003 (ip), vehicle: saline",101 % of control
same,T/C,"dose: 200.0 mg/kg/injection, schedule: Q04DX003 (ip), vehicle: Klucel (hydroxypropylcellulose) (HPC)",100 % of control and 97 % of control
same,T/C,"dose: 200.0 mg/kg/injection, schedule: Q04DX003 (ip), vehicle: saline",111 % of control
same,T/C,"dose: 400.0 mg/kg/injection, schedule: Q04DX003 (ip), vehicle: Klucel (hydroxypropylcellulose) (HPC)",105 % of control
same,T/C,"dose: 400.0 mg/kg/injection, schedule: Q04DX003 (ip), vehicle: saline",120 % of control
Cc1cnc(C)c2ccccc12,T/C,[7],109 % of control
same,T/C,[8],117 % of control
Cc1cn(C2OC(CO)C(O)C2O)c(=O)[nH]c1=O (stereo not drawn),T/C,[8],90 % of control
same,T/C,[9],104 % of control
same,T/C,[10],104 % of control
same,T/C,"dose: 200.0 mg/kg/injection, schedule: Q04DX003 (ip), vehicle: saline with Tween-80",104 % of control
same,T/C,"dose: 400.0 mg/kg/injection, schedule: Q01DX009 (ip), vehicle: saline with Tween-80",100 % of control
same,T/C,"dose: 400.0 mg/kg/injection, schedule: Q04DX003 (ip), vehicle: saline with Tween-80",100 % of control
O/N=C(\C[P+](c1ccccc1)(c1ccccc1)c1ccccc1)c1ccccc1,T/C,[11],100 % of control
same,T/C,[12],99 % of control
same,T/C,[13],102 % of control
Cc1cc2c(c(C#N)c1C)NC=NC2C (stereo not drawn),T/C,[7],94 % of control
same,T/C,[8],105 % of control
C/C(CCl)=N/NC1=NC(C)(CCC2(C)N=C(N/N=C(/C)CCl)SP2(=O)NC23CC4CC(CC(C4)C2)C3)P(=O)(NC23CC4CC(CC(C4)C2)C3)S1 (stereo not drawn),T/C,[4],105 % of control
same,T/C,[5],100 % of control
same,T/C,[6],91 % of control
CC(=O)C1=C(O)C2(O)C(=O)c3c(c(C)c4ccc(C)c(O)c4c3O)CC2C(N)C1=O (stereo not drawn),T/C,"dose: 7.5 mg/kg/injection, schedule: Q01DX009 (ip), vehicle: saline + alcohol",103 % of control and 107 % of control and 120 % of control
same,T/C,"dose: 15.0 mg/kg/injection, schedule: Q01DX009 (ip), vehicle: saline + alcohol",103 % of control
same,T/C,"dose: 30.0 mg/kg/injection, schedule: Q01DX009 (ip), vehicle: saline + alcohol",119 % of control
same,T/C,"dose: 50.0 mg/kg/injection, schedule: Q04DX003 (ip), vehicle: saline with Tween-80",111 % of control
same,T/C,[9],111 % of control
O=C1c2ccccc2C(=O)N1c1ccccc1Br,T/C,[1],100 % of control
same,T/C,[2],97 % of control
same,T/C,[3],101 % of control
Nc1ccnc(Sc2ncccc2[N+](=O)[O-])n1,T/C,[1],100 % of control
same,T/C,[2],100 % of control
same,T/C,[3],93 % of control
COc1ccc2nc(C)cc(N/N=C/c3cccnc3)c2c1,T/C,"dose: 6.25 mg/kg/injection, schedule: Q01DX009 (ip), vehicle: Klucel (hydroxypropylcellulose) (HPC)",101 % of control
same,T/C,[11],104 % of control
same,T/C,[12],113 % of control
CC1Cn2c(nnc2-c2ccccc2O)S1 (stereo not drawn),T/C,[4],96 % of control
same,T/C,[5],100 % of control
same,T/C,[6],101 % of control
Cc1nc2cc(C(=O)NC=O)c3n[nH]nc3c2n1C,T/C,"dose: 4.0 mg/kg/injection, schedule: Q01DX005 (ip), vehicle: DMSO",98 % of control
same,T/C,"dose: 8.0 mg/kg/injection, schedule: Q01DX005 (ip), vehicle: DMSO",103 % of control
same,T/C,"dose: 16.0 mg/kg/injection, schedule: Q01DX005 (ip), vehicle: DMSO",94 % of control
same,T/C,"dose: 32.0 mg/kg/injection, schedule: Q01DX005 (ip), vehicle: DMSO",93 % of control
COC(=O)C1CSC2(CCCN(Cc3ccccc3)C2)N1 (stereo not drawn),T/C,[14],105 % of control
same,T/C,[15],122 % of control
same,T/C,[16],109 % of control
COc1ccc(C2c3cc4c(cc3OC(N3CCCC3)C2C)OCO4)c(OC)c1 (stereo not drawn),T/C,[4],99 % of control
same,T/C,[5],99 % of control
same,T/C,[6],97 % of control
COc1cccc(CSCC(=O)O)c1,T/C,[14],97 % of control
same,T/C,[15],102 % of control
same,T/C,[16],92 % of control
Cc1ncc(CO)c(/C=N/NC(=O)c2ccncc2)c1O,T/C,"dose: 60.0 mg/kg/injection, schedule: Q01DX005 (ip), vehicle: Klucel (hydroxypropylcellulose) (HPC)",102 % of control
same,T/C,"dose: 120.0 mg/kg/injection, schedule: Q01DX005 (ip), vehicle: Klucel (hydroxypropylcellulose) (HPC)",102 % of control
same,T/C,"dose: 240.0 mg/kg/injection, schedule: Q01DX005 (ip), vehicle: Klucel (hydroxypropylcellulose) (HPC)",101 % of control
O=C(O)CNc1ccccc1Br,T/C,[1],105 % of control
same,T/C,[2],97 % of control
same,T/C,[3],96 % of control
FC(F)(F)C(OCC1CO1)(c1ccccc1)C(F)(F)F (stereo not drawn),T/C,[13],89 % of control
same,T/C,[17],97 % of control
same,T/C,[18],97 % of control
C=CCNC(=O)c1ccccc1SC(C)=O,T/C,[7],117 % of control and 119 % of control
same,T/C,[8],120 % of control
same,T/C,[10],114 % of control
COc1ccc(C(=O)c2coc3cc4c(cc23)OCO4)c(O)c1,T/C,"dose: 50.0 mg/kg/injection, schedule: Q01DX001 (ip), vehicle: Klucel (hydroxypropylcellulose) (HPC)",88 % of control
same,T/C,"dose: 100.0 mg/kg/injection, schedule: Q01DX001 (ip), vehicle: Klucel (hydroxypropylcellulose) (HPC)",88 % of control
same,T/C,"dose: 200.0 mg/kg/injection, schedule: Q01DX001 (ip), vehicle: Klucel (hydroxypropylcellulose) (HPC)",88 % of control
COc1cc(C(=O)NC2CCc3cc(OC)c(OC)c(OC)c3-c3ccc(OC)c(=O)cc32)cc(OC)c1OC (stereo not drawn),T/C,"dose: 1.25 mg/kg/injection, schedule: Q01DX009 (ip), vehicle: Klucel (hydroxypropylcellulose) (HPC)",119 % of control
same,T/C,"dose: 2.5 mg/kg/injection, schedule: Q01DX009 (ip), vehicle: Klucel (hydroxypropylcellulose) (HPC)",124 % of control
same,T/C,"dose: 10.0 mg/kg/injection, schedule: Q01DX009 (ip), vehicle: Klucel (hydroxypropylcellulose) (HPC)",152 % of control and 154 % of control
same,T/C,"dose: 20.0 mg/kg/injection, schedule: Q01DX009 (ip), vehicle: Klucel (hydroxypropylcellulose) (HPC)",155 % of control and 163 % of control
COc1ccc(-c2cc3c(c4cc(OC)ccc24)C(=O)OC3=O)cc1,T/C,[4],93 % of control
same,T/C,[5],97 % of control
same,T/C,[6],98 % of control
CC1OC(OC2C(OC3C[C@@]4(C)C(C[C@H](O)[C@H]5[C@H](C6(C)CCC(C(C)(C)O)O6)CCC54C)[C@]4(C)CC[C@@H](O)C(C)(C)C34)OC(CO)C(O)C2O)C(O)C(O)C1O (stereo partly drawn) (tested in a mixture with another compound),T/C,[13],101 % of control
same,T/C,[17],101 % of control
same,T/C,[18],94 % of control
COP(=O)(O)OC.[U],T/C,"dose: 3.12 mg/kg/injection, schedule: Q01DX009 (ip), vehicle: saline with Tween-80",118 % of control
same,T/C,"dose: 6.25 mg/kg/injection, schedule: Q01DX009 (ip), vehicle: saline with Tween-80",118 % of control
C=C1C(=O)C23C(OC(=O)/C=C/c4ccccc4)C1CCC2C12COC3(O)C(O)C1C(C)(C)CCC2O (stereo not drawn),T/C,"dose: 3.75 mg/kg/injection, schedule: Q01DX009 (ip), vehicle: saline with Tween-80",98 % of control
same,T/C,"dose: 7.5 mg/kg/injection, schedule: Q01DX009 (ip), vehicle: saline with Tween-80",95 % of control
same,T/C,"dose: 15.0 mg/kg/injection, schedule: Q01DX009 (ip), vehicle: saline with Tween-80",101 % of control
same,T/C,"dose: 30.0 mg/kg/injection, schedule: Q01DX009 (ip), vehicle: saline with Tween-80",98 % of control
